# According to patent publication US20230271950A1, “ANTIBACTERIAL PICOLINAMIDE COMPOUNDS” (University of Notre Dame Du Lac, priority 2020, published 2023):
# How the values were obtained:
# C. difficile ATCC43255 = experiment: Macromolecular synthesis assay (radioactive precursor incorporation); assay type: cell-based, Clostridioides difficile; details: 0.5×MIC
# Method: FIG. 2. Mechanism of action of compound 1. (A) Macromolecular biosynthesis assays: Compound 1 was incubated with C. difficile ATCC43255 at 0.5×MIC. […] The incubation time was 60 min for DNA, 120 min for peptidoglycan synthesis and RNA, and 180 min for protein synthesis. (B-G) Imaging of C. difficile […] vegetative cells (logarithmic growth) by scanning electron microscopy.
# The mechanism of action of 1 was investigated using macromolecular synthesis assays. These assays measure the incorporation of radioactive precursors ([2,8-^3H]-adenine, [5,6-^3H]-uridine, 1-[3,4,5-^3H(N)]-leucine, and N-acetyl-d-[6-^3H]glucosamine) respectively into DNA, RNA, protein, and peptidoglycan. […] This analysis visualizes the cell wall as the outermost layer of the cell envelope of Gram-positive bacteria such as C. difficile.
# Macromolecular synthesis assay. The macromolecular synthesis assay was performed by established methods. […] The radiolabeled precursors were purchased from Perkin Elmer (Waltham, Mass., USA).
# C. difficile = experiment: Minimum bactericidal concentration (MBC); assay type: cell-based, Clostridioides difficile
# C. difficile ATCC 43255 = experiment: Mouse model of recurrent C. difficile infection; assay type: in vivo, mice; details: VAN 50 mg/kg oral once a day for 5 days; days 10-15
# Method: Next, compound 1 was evaluated in a mouse model of recurrent CDI.
# Animals. Female C57BL/6 mice weighing 18-20 g and 6-8 weeks of age were used for the efficacy study (Jackson, Bar Harbor, Me.). Female CD-1 mice (24-31 g and 7-8 weeks of age) were used for the PK study. They were housed in groups of five mice in sterile polycarbonate shoeboxes with bedding consisting of ¼-inch corncob (The Andersons Ind., Maumee, Ohio) and Alpha-Dri (Shepherd Specialty Papers, Inc., Richland, Mich.). Mice were maintained on a 12-h light/dark cycle at 72° F. and were given Teklad 2918 irradiated extruded rodent diet and water ad libitum. All procedures were performed in accordance with and approved by the University of Notre Dame Institutional Animal Care and Use Committee.
# C. difficile infection model. The recurrent C. difficile infection model reported by Chen et al. was used (Gastroenterology 2008, 135, 1984). […] Subsequently, mice were given a 10 mg/kg intraperitoneal injection of clindamycin. The following day, the mice were infected intragastrically with 10^4 CFU of C. difficile ATCC 43255. […] Body weights and survival were recorded for 25 days. The study was repeated a second time.
Structure (SMILES),"inhibition of DNA, RNA, and protein synthesis (C. difficile ATCC43255)","inhibition of cell-wall peptidoglycan biosynthesis (C. difficile ATCC43255; N-acetyl-d-[6-^3H]glucosamine incorporation, 120 min) [%]",MBC higher than MIC (C. difficile; C. difficile) [fold],"MBC (C. difficile; Clostridioides difficile, C. difficile) [µg/mL]",bacteriostatic or bactericidal (by definition) (C. difficile; from MBC versus MIC),recurrence of infection (loss of body weight) (C. difficile ATCC 43255)
"O=C(O)c1ccc2oc(NC(=O)c3cc(Oc4cccc(OC(F)(F)F)c4)ccn3)nc2c1 [Compound 1, Sodium 2-(4-(3-(trifluoromethoxy)phenoxy)picolinamido)benzo[d]oxazole-5-carboxylate]",Minimal levels of inhibition,55±4,64,4,bacteriostatic,–
"CN[C@H](CC(C)C)C(=O)N[C@H]1C(=O)N[C@@H](CC(N)=O)C(=O)N[C@H]2C(=O)N[C@H]3C(=O)N[C@H](C(=O)N[C@H](C(=O)O)c4cc(O)cc(O)c4-c4cc3ccc4O)[C@H](O)c3ccc(c(Cl)c3)Oc3cc2cc(c3O[C@@H]2O[C@H](CO)[C@@H](O)[C@H](O)[C@H]2O[C@H]2C[C@](C)(N)[C@H](O)[C@H](C)O2)Oc2ccc(cc2Cl)[C@H]1O [VAN, vancomycin, reference compound]",–,–,–,–,–,recurrence of infection is observed
